Earlier results in paper PMC10656230, “Disruption of the productive encounter complex results in dysregulation of DIAPH1 activity” (The Journal of Biological Chemistry, 2023).

Legend:
[1] = tested on: DID; settings: DAD without RRKR motif vs
Text: Chemical shifts (δ) and cross peak intensities (I) were monitored by using heteronuclear single–quantum coherence (^1H-^15N HSQC) NMR spectroscopy ([38]) (Fig. S1A). […] Negligible perturbations occurred beyond a 1:1 mole ratio, indicating a 1:1 stoichiometry for the complex. […] H ...

[2] = tested on: DID R278E; settings: DID mutation R278E, no 2- to 3-fold decrease
Text: (§1) Our findings identify E326 and E327 as critical for binding (Figs. 3D, 4 and S1). The E326 and E327 acidic patch is located greater than 30 Å away from the Rho GTPase binding site and represents a new surface for DIAPH1 regulation (Fig. S4B) ([25]). Interruption of the electrostatic interaction between the basic RRKR motif an ...

[3] = tested on: DID E273K; settings: DID mutation E273K, no 2- to 3-fold decrease
Text: as §1

DETGVMDSLLEALQSGAAFRRKRGPRQAN [DAD]
decrease in DID-DAD binding affinity on removal of the RRKR motif of DAD [1]: 5 fold
decrease in DID-DAD binding affinity [2]: did not
decrease in DID-DAD binding affinity [3]: did not
